ChEMBL document CHEMBL1201862, “PubChem BioAssay data set” (2004)
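A five-concentration, 48-hour dose response in 96-well plates underlies each endpoint, interpolated linearly between surrounding concentrations. Abbreviation: GI50, concentration required for 50% inhibition of growth.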 Activity calls are given as the source filed them. Cut-off read from the data, not from the text of the source: active = GI50 up to about 1.1 µM and inactive = higher.

Tests used:
Test in all cases: NCI-60 cell line screen, 48 h
786-0 = system: 786-0
A498 = system: A498
A549 = system: A549
ACHN = system: ACHN
BT-549 = system: BT-549
CAKI-1 = system: CAKI-1
CCRF-CEM = system: CCRF-CEM
COLO 205 = system: COLO 205
DU-145 = system: DU-145
EKVX = system: EKVX
HCC 2998 = system: HCC 2998
HCT-116 = system: HCT-116
HCT-15 = system: HCT-15
HL-60 = system: HL-60
HOP-62 = system: HOP-62
HOP-92 = system: HOP-92
HT-29 = system: HT-29
Hs-578T = system: Hs-578T
IGROV-1 = system: IGROV-1
K562 = system: K562
KM12 = system: KM12
LOX IMVI = system: LOX IMVI
M14 = system: M14
MCF7 = system: MCF7
MDA-MB-231 = system: MDA-MB-231
MDA-MB-435 = system: MDA-MB-435
MDA-N = system: MDA-N
MOLT-4 = system: MOLT-4
Malme-3M = system: Malme-3M
NCI-H226 = system: NCI-H226
NCI-H23 = system: NCI-H23
NCI-H460 = system: NCI-H460
NCI-H522 = system: NCI-H522
NCI/ADR-RES = system: NCI/ADR-RES
OVCAR-3 = system: OVCAR-3
OVCAR-4 = system: OVCAR-4
OVCAR-5 = system: OVCAR-5
OVCAR-8 = system: OVCAR-8
PC-3 = system: PC-3
RPMI-8226 = system: RPMI-8226
RXF 393 = system: RXF 393
SF-268 = system: SF-268
SF-295 = system: SF-295
SF-539 = system: SF-539
SK-MEL-28 = system: SK-MEL-28
SK-MEL-2 = system: SK-MEL-2
SK-MEL-5 = system: SK-MEL-5
SK-OV-3 = system: SK-OV-3
SN12C = system: SN12C
SNB-19 = system: SNB-19
SNB-75 = system: SNB-75
SR = system: SR
SW-620 = system: SW-620
T47D = system: T47D
TK-10 = system: TK-10
U-251 = system: U-251
UACC-257 = system: UACC-257
UACC-62 = system: UACC-62
UO-31 = system: UO-31

CC(C)(C)c1ccc(OCCOc2ccc(C(C)(C)C)cc2NC=O)c(NC=O)c1 was tested, and the GI50 (786-0) was 8.17 µM (inactive), the GI50 (A498) was 15.4 µM (inactive) and the GI50 (A549) was 5.73 µM (inactive). For the same compound, the GI50 (ACHN) was 7.78 µM (inactive), the GI50 (BT-549) was 15.6 µM (inactive) and the GI50 (CAKI-1) was 19.4 µM (inactive). The GI50 (CCRF-CEM) was 2.06 µM (inactive), the GI50 (COLO 205) was 1.94 µM (inactive) and the GI50 (DU-145) was 17.9 µM (inactive). The GI50 (EKVX) was 10.5 µM (inactive), the GI50 (HCC 2998) was 5.12 µM (inactive) and the GI50 (HCT-116) was 6.43 µM (inactive). The GI50 (HCT-15) was 3.81 µM, the GI50 (HL-60) was 6.04 µM (inactive) and the GI50 (HOP-62) was 6.92 µM (inactive). The GI50 (HOP-92) was 7 µM (inactive), the GI50 (HT-29) was 3.08 µM (inactive) and the GI50 (Hs-578T) was 12.5 µM (inactive). For the same compound, the GI50 (IGROV-1) was 11.3 µM (inactive), the GI50 (K562) was 4.14 µM (inactive) and the GI50 (KM12) was 3.77 µM (inactive). For the same compound, the GI50 (LOX IMVI) was 4.5 µM (inactive), the GI50 (M14) was 5.48 µM (inactive) and the GI50 (MCF7) was 4.7 µM (inactive). The GI50 (MDA-MB-231) was 11.4 µM (inactive), the GI50 (MDA-MB-435) was 6.85 µM (inactive) and the GI50 (MDA-N) was 9.12 µM (inactive). The GI50 (MOLT-4) was 2.79 µM (inactive), the GI50 (Malme-3M) was 8.79 µM (inactive) and the GI50 (NCI-H226) was 10.8 µM (inactive). For the same compound, the GI50 (NCI-H23) was 7.11 µM (inactive), the GI50 (NCI-H460) was 4.01 µM (inactive) and the GI50 (NCI-H522) was 6.7 µM (inactive). For the same compound, the GI50 (NCI/ADR-RES) was 5.68 µM (inactive), the GI50 (OVCAR-3) was 14.4 µM (inactive) and the GI50 (OVCAR-4) was 7.01 µM (inactive). For the same compound, the GI50 (OVCAR-5) was 22.4 µM (inactive), the GI50 (OVCAR-8) was 11.8 µM (inactive) and the GI50 (PC-3) was 8.71 µM (inactive). For the same compound, the GI50 (RPMI-8226) was 2.32 µM (inactive), the GI50 (RXF 393) was 8.77 µM (inactive) and the GI50 (SF-268) was 15.1 µM (inactive). For the same compound, the GI50 (SF-295) was 5.5 µM (inactive), the GI50 (SF-539) was 8.77 µM (inactive) and the GI50 (SK-MEL-28) was 12.3 µM (inactive). For the same compound, the GI50 (SK-MEL-2) was 14.9 µM (inactive), the GI50 (SK-MEL-5) was 4.13 µM (inactive) and the GI50 (SK-OV-3) was 20.9 µM (inactive). The GI50 (SN12C) was 15 µM (inactive), the GI50 (SNB-19) was 18.2 µM (inactive) and the GI50 (SNB-75) was 19.3 µM (inactive). For the same compound, the GI50 (SR) was 11.7 µM (inactive), the GI50 (SW-620) was 4.39 µM (inactive) and the GI50 (T47D) was 6.01 µM (inactive). For the same compound, the GI50 (TK-10) was 15.1 µM (inactive), the GI50 (U-251) was 6.82 µM (inactive) and the GI50 (UACC-257) was 5.85 µM (inactive). The GI50 (UACC-62) was 12.5 µM (inactive) and the GI50 (UO-31) was 5.69 µM (inactive).
